# From publication PMC7083880 (Nature Communications, 2020)
# How the values were obtained:
# [1] = test system: Fluc-int-UGA construct in HEK293FT cells; test: Amino-acid identification assay (mass spectrometry); format: cell-based, human; details: 25 µM DAP
# From the text: To elucidate the molecular mechanism of DAP-promoted UGA readthrough, mass spectrometry was used to identify the amino acid incorporated at the PTC position into firefly luciferase synthesized from the Fluc-int-UGA construct. […] The luciferase protein was digested with […] to generate a PTC-position-containing peptide compatible with mass spectrometry analysis. Using this approach, we found only one amino acid, tryptophan, incorporated at the PTC position in the peptide of interest (Fig. 5a).
# Firefly luciferase from HEK293FT cells transfected with the Fluc-int-UGA construct was immunoprecipitated and digested with trypsin. The MS/MS spectrum of the peptide containing the PTC position and the sequence determination are shown. […] Readthrough efficiency was determined by measuring luciferase activity in HeLa cells co-transfected with the firefly luciferase construct described in Fig. 1b and with increasing amounts of an expression vector for either FTSJ1 or CTU1 (0.5, 1, or 2 µg). […] A molecular weight marker is indicated to the left of each gel. p-values (p) were calculated using Student’s t-test. […]
# Sixty million HEK293FT cells were transfected with 120 µg Fluc-int-UGA construct with CaCl2 in HBSS buffer. […] The immunoprecipitate was subjected to 10% SDS–PAGE and then firefly luciferase was detected by Coomassie staining. […]
# [2] = test system: endogenous TP53 gene with UAG nonsense mutation in Caco-2 cells; test: p53 protein western blot, Caco-2 cells; format: cell-based, human; details: Caco-2 (UAG); 24 h
# Experimental: After 24 h of treatment, proteins were extracted from the cells and the p53 protein was assessed by western blotting (Fig. 2a). After DMSO mock treatment, as anticipated, no p53 protein was detected, because of the presence of the PTC in p53 mRNA[33].
# The three leftmost lanes show twofold serial dilutions of untreated HeLa cell extract. The molecular weight is indicated to the left of each gel. b Schematic representation of the construct used to measure the function of p53. The construct carries a cDNA encoding the firefly luciferase under a promoter having two p53-responsive elements (underlined). […] The level of p21 mRNA is related to the amount of functional p53 protein synthesized in the cell. The results presented in panels b and c are representative of at least two independent experiments., p-values (p) were calculated using Student’s t-test. Source data are provided as a Source Data file. […]
# The equivalent of 2.5 × 10^5 cells was subjected to 10% SDS–PAGE before transfer of the proteins to a nitrocellulose membrane. […] Antibodies were then detected with Super Signal West Femto Maximum Sensitivity Substrate (Pierce-Biotechnology, Rockford, IL, USA). Quantifications were performed with QuantityOne software (Biorad). […]
smiles,measurement,setting,value
"Nc1nc(N)c2[nH]cnc2n1 [DAP, 2,6-diaminopurine]",Amino acid incorporated at the PTC position,[1],tryptophan
same,Synthesis of p53 protein (western blot),[2],not in Caco-2 cells
